Assay results from patent US10561142B2, “Dispersed lactams” (Conopco, Inc., priority 2015, dated 2020).

Test: Dissolution of lactam / PVP solid dispersion in water (visual, FIG. 1)
Type: physicochemical
Details: added to water, amount of lactam equivalent to that in the 1% lactam/PVP solid dispersion
Source text: The inventor(s) have shown that solid dispersion of lactam in PVP confers enhanced aqueous solubility to the lactam. […] Note that this example is a proof of concept, and the lactam used was 4-(4-fluorophenyl)-5-methylene-pyrrol-2-one.
Such solid dispersions dissolve rapidly to give clear solutions.

C=C1NC(=O)C=C1c1ccc(F)cc1 [4-(4-fluorophenyl)-5-methylene-pyrrol-2-one]
dissolution in water (aqueous solubility): does not dissolve
